The data set is classed as physicochemical. The following applies: pH 4; for Remaining: buffer. Here is the method:
0.05 M citrate buffer with a pH of 4.0 at 20.3° C. was prepared. To this buffer were added 5.35 mM theanine and 2.675 mM of the theanine dimer. The resulting solution was held at 92° C. for two weeks with small samples being taken regularly for analysis with HPLC.

This is an account of results in patent publication US20080009505A1, “Theanine derivatives, uses thereof and processes for the manufacture thereof” (Conopco Inc. d/b/a UNILEVER, priority 2006, published 2008).

SMILES strings stand for the structures. Read-outs that look alike come from different tables or passages of the source.

Take `CCNC(=O)CCC1NC(=O)C(CCC(=O)NCC)NC1=O` (stereo not drawn) [Theanine Dimer, N-ethyl-3-[5-(2-ethylcarbamoyl-ethyl)-3,6-dioxo-piperazin-2-yl]-propionamide]: the “Stability compared with theanine” value was “much more stable than theanine”. Moreover, the Remaining (0 h) was found to be 2.68 mM. This molecule yielded a Remaining (2.5 h) of 2.75 mM. Moreover, the Remaining (17.5 h) is recorded as 2.80 mM. This molecule also returned a Remaining (26.3 h) of 2.78 mM. The same molecule returned a Remaining (42 h) of 2.99 mM. In addition, where the note is “50 h”, the Remaining came to 3.31 mM. In addition, the Remaining (121.3 h) was 3.36 mM. The Remaining (137.3 h) came to 3.38 mM. In addition, the Remaining (145.8 h) is given as 3.51 mM. Besides, for the setting “161.6 h”, the Remaining is 3.54 mM. This molecule also had a Remaining (170.2 h) of 3.59 mM. The Remaining (185.8 h) came to 3.63 mM. The molecule further gave a Remaining (193.3 h) of 3.80 mM.
Take `CCNC(=O)CCC(N)C(=O)O` (stereo not drawn) [Theanine, N-gamma-ethyl glutamine]: the Remaining turned out to be 5.35 mM (0 h); 4.83 mM (2.5 h); 2.54 mM (17.5 h); 1.83 mM (26.3 h); 0.81 mM (42 h); 0.05 mM (50 h). Also, the Remaining reads like this: (121.3 h) 0.04 mM; (137.3 h) 0.03 mM; (145.8 h) 0.02 mM; (161.6 h) 0.01 mM; (170.2 h) 0.01 mM; (185.8 h) 0.01 mM. Also, where the note is “193.3 h”, the Remaining was found to be 0.01 mM.
